Experimental data reported in patent US20130040933A1, “AZAINDOLES AS JANUS KINASE INHIBITORS” (priority 2010, published 2013).

The compounds below were run against T1, rhJAK3 (Homo sapiens, UniProt P52333) (assay: JAK Biochemical HTRF Assay (JAK3)). Details: recombinant purified GST-tagged catalytic domain, HTRF format, [ATP] 1.7 μM; read-out: JAK3 IC50.
T1 construct: recombinant purified GST-tagged catalytic domain for each enzyme; purchased Invitrogen PV3855
T1 sequence (P52333 822-1111 limits assumed): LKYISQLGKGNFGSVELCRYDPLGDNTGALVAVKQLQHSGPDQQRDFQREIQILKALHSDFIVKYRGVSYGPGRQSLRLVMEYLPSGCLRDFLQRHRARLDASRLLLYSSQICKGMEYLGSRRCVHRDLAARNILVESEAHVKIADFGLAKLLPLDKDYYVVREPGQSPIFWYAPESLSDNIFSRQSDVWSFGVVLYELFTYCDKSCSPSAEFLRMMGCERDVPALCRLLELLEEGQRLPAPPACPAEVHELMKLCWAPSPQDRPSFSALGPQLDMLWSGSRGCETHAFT
Procedure: JAK Biochemical HTRF Assay Protocol
The ability of compounds to inhibit the activity of JAK1, JAK2, JAK3, and TYK2 was measured using a recombinant purified GST-tagged catalytic domain for each enzyme (Invitrogen JAK1 #PV4774, JAK2 #PV4210, JAK3 #PV3855, TYK2 #PV4790) in an HTRF format biochemical assay. The reactions employed a common peptide substrate, LCB-EQEDEPEGDYFEWLW-NH2. The basic assay protocol is as follows: First, […] of diluted compounds in DMSO were dispensed into the wells of a dry 384-well Black plate (Greiner #781076) using a Labcyte Echo 555 acoustic dispenser. Subsequent reagent additions employed a Thermo Multidrop Combi nL. Next, 10 μL of 2× enzyme and 2× substrate in 1× assay buffer (Invitrogen kinase buffer #PV3189, 2 mM DTT, 0.05% BSA) were added to the wells and preincubated for 30 min at room temperature to allow compound binding to equilibrate. After equilibration, 10 μl, of 2×ATP in 1× assay buffer was added to initiate the kinase reaction and the plates were incubated at room temperature for 120 min. At the end of the incubation, 20 μL of 2× stop buffer containing streptavidin-Dylight (Thermo #21845) and Eu-tagged pY20 antibody (Perkin Elmer #AD0067) was added to quench the reaction. Plates were further incubated 60 min at room temperature with shaking and then read on a Perkin Elmer Envision (λex=337 nm, λem=665 and 615 nm, TRF delay time=20 μs). HTRF signal=10,000*665 nm reading/615 nm reading. After normalization to untreated controls, the percent inhibition of the HTRF signal at each compound concentration was calculated. The plot of percent inhibition vs. the log of compound concentration was fit with a 4-parameter dose response equation to calculate IC50 values.
With `C[C@@H](Nc1cncc(-c2c[nH]c3ncc(-c4cccc(N5CCCC5)c4)cc23)n1)C(=O)NCC(F)(F)F` [Example 15-1, N^2-{6-[5-(3-pyrrolidin-1-ylphenyl)-1H-pyrrolo[2,3-b]pyridin-3-yl]pyrazin-2-yl}-N-(2,2,2-trifluoroethyl)-D-alaninamide] the IC50 was ≤ 1 nM. `C[C@@H](Nc1cncc(-c2c[nH]c3ncc(-c4ccc(CC#N)nc4)cc23)n1)C(=O)NCC(F)(F)F` [Example 15-2, N^2-(6-{5-[6-(cyanomethyl)pyridin-3-yl]-1H-pyrrolo[2,3-b]pyridin-3-yl}-pyrazin-2-yl)-N-(2,2,2-trifluoroethyl)-D-alaninamide] was tested, and the IC50 was ≤ 1 nM. For `C[C@@H](Nc1cncc(-c2c[nH]c3ncc(-c4ccc(C(O)C(F)(F)F)cc4)cc23)n1)C(=O)NCC(F)(F)F` (stereo partly drawn) [Example 15-3, N-(2,2,2-trifluoroethyl)-N^2-(6-{5-[4-(2,2,2-trifluoro-1-hydroxyethyl)phenyl]-1H-pyrrolo[2,3-b]pyridin-3-yl}pyrazin-2-yl)-D-alaninamide], the IC50 was ≤ 1 nM. An IC50 of 1 to 10 nM was found for `C[C@@H](Nc1cncc(-c2c[nH]c3ncc(/C=C/CN(C)C)cc23)n1)C(=O)NCC(F)(F)F` [Example 15-4, N^2-(6-{5-[(1E)-3-(dimethylamino)prop-1-en-1-yl]-1H-pyrrolo[2,3-b]pyridin-3-yl}pyrazin-2-yl)-N-(2,2,2-trifluoro-ethyl)-D-alaninamide] in this work. An IC50 of 1 to 10 nM was found for `C[C@@H](Nc1cncc(-c2c[nH]c3ncc(-c4ccnn4C)cc23)n1)C(=O)NCC(F)(F)F` [Example 15-5, N^2-{6-[5-(1-methyl-1H-pyrazol-5-yl)-1H-pyrrolo[2,3-b]pyridin-3-yl]pyrazin-2-yl}-N-(2,2,2-trifluoroethyl)-D-alaninamide] in this work. With `C[C@@H](Nc1cncc(-c2c[nH]c3ncc(-c4cnc(N)nc4)cc23)n1)C(=O)NCC(F)(F)F` [Example 15-6, N^2-{6-[5-(2-aminopyrimidin-5-yl)-1H-pyrrolo[2,3-b]pyridin-3-yl]pyrazin-2-yl}-N-(2,2,2-trifluoroethyl)-D-alaninamide] the IC50 was ≤ 1 nM. For `COCC#Cc1cnc2[nH]cc(-c3cncc(N[C@H](C)C(=O)NCC(F)(F)F)n3)c2c1` [Example 15-7, N^2-{6-[5-(3-methoxyprop-1-yn-1-yl)-1H-pyrrolo[2,3-b]pyridin-3-yl]pyrazin-2-yl}-N-(2,2,2-trifluoroethyl)-D-alaninamide], the IC50 was ≤ 1 nM. An IC50 of 10 to 100 nM was found for `C[C@@H](Nc1cncc(-c2c[nH]c3ncc(CN4CCC(F)C4)cc23)n1)C(=O)NCC(F)(F)F` (stereo partly drawn) [Example 15-8, N^2-(6-{5-[(3-fluoropyrrolidin-1-yl)-methyl]-1H-pyrrolo[2,3-b]pyridin-3-yl}-pyrazin-2-yl)-N-(2,2,2-trifluoroethyl)-D-alaninamide] in this work. In the case of `C[C@@H](Nc1cncc(-c2c[nH]c3ncc(-c4cnn5c4CCC5)cc23)n1)C(=O)NCC(F)(F)F` [Example 15-9, N^2-{6-[5-(5,6-dihydro-4H-pyrrolo[1,2-b]pyrazol-3-yl)-1H-pyrrolo[2,3-b]-pyridin-3-yl]pyrazin-2-yl}-N-(2,2,2-trifluoroethyl)-D-alaninamide], the IC50 is reported as ≤ 1 nM. In the case of `C[C@@H](Nc1cncc(-c2c[nH]c3ncc(-c4cccc(N5CCOCC5)c4)cc23)n1)C(=O)NCC(F)(F)F` [Example 15-10, N^2-{6-[5-(3-morpholin-4-ylphenyl)-1H-pyrrolo[2,3-b]pyridin-3-yl]pyrazin-2-yl}-N-(2,2,2-trifluoroethyl)-D-alaninamide], the IC50 is reported as ≤ 1 nM. For `CC(c1cccc(-c2cnc3[nH]cc(-c4cncc(N[C@H](C)C(=O)NCC(F)(F)F)n4)c3c2)c1)N1CCCC1` (stereo partly drawn) [Example 15-11, N^2-(6-{5-[3-(1-pyrrolidin-1-ylethyl)-phenyl]-1H-pyrrolo[2,3-b]pyridin-3-yl}pyrazin-2-yl)-N-(2,2,2-trifluoroethyl)-D-alaninamide], the IC50 was ≤ 1 nM.

Same assay, conditions: recombinant purified GST-tagged catalytic domain, HTRF format, [ATP] 1.7 μM; read-out: rhJAK3 IC50
An IC50 of 100 to 1000 nM was found for `O=C(NCCC(F)(F)F)C1(Oc2cncc(-c3c[nH]c4ncc(Cl)cc34)n2)CC1` [Example 6-3, 1-{[6-(5-chloro-1H-pyrrolo[2,3-b]pyridin-3-yl)pyrazin-2-yl]oxy}-N-(3,3,3-trifluoro-propyl)cyclopropanecarboxamide] in this work. An IC50 of 1 to 10 nM was found for `C[C@H](Oc1cncc(-c2c[nH]c3ncc(Cl)cc23)n1)C(=O)NCC(F)(F)F` [Example 6-4, 2(S) 2-{[6-(5-chloro-1H-pyrrolo[2,3-b]pyridin-3-yl)pyrazin-2-yl]oxy}-N-(2,2,2-trifluoroethyl)propanamide] in this work. An IC50 of 100 to 1000 nM was found for `O=C(NCC(F)(F)F)c1cncc(-c2c[nH]c3ncc(Cl)cc23)n1` [Example 7, 6-(5-chloro-1H-pyrrolo[2,3-b]pyridin-3-yl)-N-(2,2,2-trifluoroethyl)pyrazine-2-carboxamide] in this work. An IC50 of 100 to 1000 nM was found for `O=C(NCC(F)(F)F)[C@H]1CNCCN1C(=O)c1cncc(-c2c[nH]c3ncc(Cl)cc23)n1` [Example 7-1, (2R)-1-{[6-(5-chloro-1H-pyrrolo[2,3-b]pyridin-3-yl)-pyrazin-2-yl]carbonyl}-N-(2,2,2-trifluoroethyl)piperazine-2-carboxamide] in this work. An IC50 of 10 to 100 nM was found for `O=C(Cc1cncc(-c2c[nH]c3ncc(Cl)cc23)n1)NCC(F)(F)F` [Example 8, 2-[6-(5-chloro-1H-pyrrolo[2,3-b]pyridin-3-yl)pyrazin-2-yl]-N-(2,2,2-trifluoroethyl)acetamide] in this work. An IC50 of 100 to 1000 nM was found for `O=C(Cc1cncc(-c2c[nH]c3ncc(Cl)cc23)n1)N1CCOCC1` [Example 8-1, 5-chloro-3-[6-(2-morpholin-4-yl-2-oxoethyl)pyrazin-2-yl]-1H-pyrrolo-[2,3-b]pyridine] in this work. An IC50 of 100 to 1000 nM was found for `N#CCCNC(=O)Cc1cncc(-c2c[nH]c3ncc(Cl)cc23)n1` [Example 8-2, 2-[6-(5-chloro-1H-pyrrolo[2,3-b]-pyridin-3-yl)pyrazin-2-yl]-N-(2-cyanoethyl) acetamide] in this work. An IC50 of 10 to 100 nM was found for `O=C(Cc1cncc(-c2c[nH]c3ncc(Cl)cc23)n1)NCCC(F)(F)F` [Example 8-3, 2-[6-(5-chloro-1H-pyrrolo[2,3-b]-pyridin-3-yl)pyrazin-2-yl]-N-(3,3,3-trifluoropropyl) acetamide] in this work. An IC50 of 10 to 100 nM was found for `N#CCNC(=O)Cc1cncc(-c2c[nH]c3ncc(Cl)cc23)n1` [Example 8-4, 2-[6-(5-chloro-1H-pyrrolo[2,3-b]-pyridin-3-yl)pyrazin-2-yl]-N-(cyanomethyl)acetamide] in this work. An IC50 of 10 to 100 nM was found for `C/C(=C\c1cncc(-c2c[nH]c3ncc(Cl)cc23)n1)C(=O)NCC(F)(F)F` [Example 9, (2E)-3-[6-(5-chloro-1H-pyrrolo[2,3-b]pyridin-3-yl)pyrazin-2-yl]-2-methyl-N-(2,2,2-trifluoro-ethyl)prop-2-enamide] in this work. An IC50 of 100 to 1000 nM was found for `O=C(NCC(F)(F)F)c1ccc(-c2cncc(-c3c[nH]c4ncc(Cl)cc34)n2)cc1` [Example 10, 4-[6-(5-Chloro-1H-pyrrolo[2,3-b]pyridin-3-yl)pyrazin-2-yl]-N-(2,2,2-trifluoroethyl)benzamide] in this work. An IC50 of 1 to 10 nM was found for `O=C(NCC(F)(F)F)C1=C(c2cncc(-c3c[nH]c4ncc(Cl)cc34)n2)CCC1` [Example 10-1, 2-[6-(5-chloro-1H-pyrrolo[2,3-b]pyridin-3-yl)pyrazin-2-yl]-N-(2,2,2-trifluoroethyl)cyclopent-1-ene-1-carboxamide] in this work. An IC50 of 1 to 10 nM was found for `CC1(C(=O)NCC(F)(F)F)CC1c1cncc(-c2c[nH]c3ncc(Cl)cc23)n1` (centres unmarked) [Example 10-2, 2-[6-(5-chloro-1H-pyrrolo[2,3-b]pyridin-3-yl)pyrazin-2-yl]-1-methyl-N-(2,2,2-trifluoroethyl)cyclopropanecarboxamide] in this work. An IC50 of 10 to 100 nM was found for `CC(Cc1cncc(-c2c[nH]c3ncc(Cl)cc23)n1)C(=O)NCC(F)(F)F` (centres unmarked) [Example 11, 3-[6-(5-chloro-1H-pyrrolo[2,3-b]pyridin-3-yl)pyrazin-2-yl]-2-methyl-N-(2,2,2-trifluoroethyl)-propanamide] in this work. An IC50 of 10 to 100 nM was found for `O=C(CCc1cncc(-c2c[nH]c3ncc(Cl)cc23)n1)NCC(F)(F)F` [Example 12, 3-[6-(5-chloro-1H-pyrrolo[2,3-b]pyridin-3-yl)pyrazin-2-yl]-N-(2,2,2-trifluoroethyl)propanamide] in this work. In the case of `C[C@@H](Nc1cncc(-c2c[nH]c3ncc(C4CC4)cc23)n1)C(=O)NCC(F)(F)F` [Example 13, N^2-[6-(5-cyclopropyl-1H-pyrrolo[2,3-b]pyridin-3-yl)pyrazin-2-yl]-N-(2,2,2-trifluoroethyl)-D-alaninamide], the IC50 is reported as ≤ 1 nM. With `C[C@@H](Nc1cncc(-c2c[nH]c3ncc(-c4cnn(C)c4)cc23)n1)C(=O)NCC(F)(F)F` [Example 14, N^2-{6-[5-(1-methyl-1H-pyrazol-4-yl)-1H-pyrrolo[2,3-b]pyridin-3-yl]pyrazin-2-yl}-N-(2,2,2-trifluoroethyl)-D-alaninamide] the IC50 was ≤ 1 nM. An IC50 of 1 to 10 nM was found for `Cc1cnc2[nH]cc(-c3cncc(N[C@H](C)C(=O)NCC(F)(F)F)n3)c2c1` [Example 15, N2-[6-(5-methyl-1H-pyrrolo[2,3-b]pyridin-3-yl)pyrazin-2-yl]-N-(2,2,2-trifluoroethyl)-D-alaninamide] in this work.
